# Experimental data as given in patent US20220364065A1, “COMPOSITION FOR REMOVING PLURIPOTENT STEM CELLS AND METHOD OF REMOVING PLURIPOTENT STEM CELLS” (NATIONAL UNIVERSITY CORPORATION HOKKAIDO UNIVERSITY, priority 2018, published 2022).
# Assays:
# [1] = test system: mouse neural stem cells; assay: Sox2 immunostaining, neural stem cells; type: cell-based; settings: 10 μM BRQ, 24 hours
# Description: (§1) The cells were fixed and immunostained as described in Kondo et al., Genes Dev. 2004, Vol. 18, Issue 23, pp. 2963-72. […] For the culture of mNSCs, PDL+fibronectin-coated ones were used (see Johe KK et al., Genes Dev. 1996, Vol. 10, Issue 24, pp. 3129 to 3140). For the culture of ES cells and iPS cells, gelatin-coated ones were used.
# (§2) For immunostaining, the cells were first washed once with PBS, then fixed by adding 4% paraformaldehyde and incubating for 10 minutes at room temperature. The cells were replaced with PBS containing 0.3% Triton X100 and incubated for 5 minutes at room temperature, then replaced with PBS containing 0.3% Triton X100 and 10% FCS (blocking solution) and incubated for 30 minutes at room temperature. The solution was replaced with primary antibody solution diluted in blocking solution and incubated for 2 hours at room temperature. After washing three times with PBS, secondary antibody and DAPI solution diluted with blocking solution were added and incubated at room temperature for 2 hours. After washing three times with PBS, the cells were sealed with anti-fading agent (manufactured by DAKO, code number: 53023) and observed under a microscope. […] In addition, fluorescence images were acquired with an Axiolmager M1 microscope (manufactured by Carl Zeiss). […]
# [2] = test system: teratomas formed from mouse ES cells; assay: Anti-teratoma activity in NOD/SCID mice, ES cell-derived tumors; type: in vivo
# Description: For tumors, 10-μm-thick sections were prepared and immunostained using the methods described by Kondo T. and Raff M., EMBO J. 2000; 19(9): 1998-2007, and Takanaga H, et al., Stem Cells. 2009; 27(1): 165-174. The following antibodies were used for this immunostaining.
# TOCRIS) PBS solution was administered daily intraperitoneally to mice bearing subcutaneous tumors. Five days after intraperitoneal administration, the mice were sacrificed to death, and the tumors were removed and photographed for pathological analysis according to the method described in Tsukamoto Y, et al., Stem Cells. 2016; 34(8): 2016-2025.
# Next, sections of these tumors were prepared, immunolabeled for the proliferation marker Ki67, pluripotent stem cell markers (Oct4 and Nanog), and differentiation markers (ATF, βIII tubulin, and SMA), and observed.
# [3] = Side effects in treated tumor-bearing mice; type: in vivo; settings: NOD/SCID mice, BRQ intraperitoneally
# [4] = test system: mouse ES cells; assay: Cell proliferation and cell death (BrdU uptake, Ki67, Casp3 immunostaining), ES cells; type: cell-based; settings: BRQ 2 days
# Description: as §1, §2
smiles,measurement,setting,value
"Cc1c(-c2ccc(-c3ccccc3F)cc2)nc2ccc(F)cc2c1C(=O)O [BRQ, 6-fluoro-2-(2′-fluoro-1,1′-biphenyl-4-yl)-3-methyl-4-quinoline-sodium carboxylate]",changes in proliferation/death and Sox2 expression,[1],no similar changes were observed
same,number of Oct4-positive cells and Nanog-positive cells in tumors,[2]; ES cell-derived tumors,significantly decreased
same,tumor proliferation,"[2]; ES cell-derived tumors, BRQ intraperitoneally",suppressed
same,"cells expressing differentiation markers (ATF, βIII tubulin, SMA) in tumors","[2]; ES cell-derived tumors, BRQ- vs DMSO-treated",similarly contained in both tumors
same,Ki67-positive proliferating cells in tumors,"[2]; ES cell-derived tumors, compared to DMSO-treated tumors",significantly reduced
same,sizes of teratomas,"[2]; ES cell-derived, BRQ intraperitoneally (DMSO control 0.55 cm^3)",0.12 cm^3
same,side effects in treated mice,[3],no visible side effects
same,CASP3 activation (Casp3 immunostaining),[4],strongly activated
same,cell proliferation (BrdU uptake assay),[4],reduced the proliferation
